Data from US6969718B2, “17-β hydroxysteroid dehydrogenase type 3 inhibitors for the treatment of androgen dependent diseases” (Schering Corporation, priority 2001, dated 2005).

Row | SMILES | melting point
1 | CC(C)[C@H]1CN(C(C)c2ccc(Cl)cc2)CCN1C(=O)CC1CCN(C(N)=O)CC1 (stereo partly drawn) [Example 101] | 76 to 82 °C
2 | CC(=O)N1CCC(CC(=O)N2CCN(Cc3ccc(Cl)c(Cl)c3)C[C@@H]2C(C)(C)C)CC1 [Example 104] | 49 to 53 °C
3 | CC(=O)N1CCC(CC(=O)N2CCN(Cc3ccccc3-c3ccc(Cl)c(Cl)c3)C[C@@H]2C(C)(C)C)CC1 [Example 106] | 62.1 to 63.6 °C
4 | CC(=O)N1CCC(CC(=O)N2CCN(Cc3ccc(-c4ccc(Cl)c(Cl)c4)cn3)C[C@@H]2C(C)(C)C)CC1 [Example 107] | 145.7 to 147 °C
5 | CC(=O)N1CCC(CC(=O)N2CCN(C(CC3CC3)c3ccc(Cl)c(Cl)c3)C[C@@H]2C(C)(C)C)CC1 (stereo partly drawn) [Example 110] | 61 to 65 °C
6 | CC(=O)N1CCC(CC(=O)N2CCN(C(CC3CC3)c3ccc(Cl)c(Cl)c3)C[C@@H]2C(C)(C)C)CC1 (stereo partly drawn) [Example 109] | 61 to 63 °C

Continued, values first:

Row | melting point | SMILES
7 | 91 to 94 °C | CC(C)(C)[C@H]1CN(C(CC2CC2)c2ccc(Cl)c(Cl)c2)CCN1C(=O)CC1CCN(C(N)=O)CC1 (stereo partly drawn) [Example 116]
8 | 98.8 to 102.4 °C | CC(C)(C)[C@H]1CN(Cc2ccccc2-c2ccc(Cl)c(Cl)c2)CCN1C(=O)CC1CCN(C(N)=O)CC1 [Example 114]
9 | 95.2 to 98 °C | CC(C)(C)[C@H]1CN(Cc2ccc(-c3ccc(Cl)c(Cl)c3)cn2)CCN1C(=O)CC1CCN(C(N)=O)CC1 [Example 115]
10 | 80 to 85 °C | CC(C)(C)[C@H]1CN(Cc2ccc(Cl)c(Cl)c2)CCN1C(=O)CC1CCN(C(N)=O)CC1 [Example 113]
11 | 61 to 63 °C | CC(=O)N1CCC(CC(=O)N2CCN(C(CCC(F)(F)F)c3ccc(C(F)(F)F)cc3)C[C@@H]2C(C)(C)C)CC1 (stereo partly drawn) [Example 111]
12 | 76 to 80 °C | CC(C)(C)[C@H]1CN(C(CCC(F)(F)F)c2ccc(C(F)(F)F)cc2)CCN1C(=O)CC1CCN(C(N)=O)CC1 (stereo partly drawn) [Example 117]
